Data from PubChem BioAssay (NCI).
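A five-concentration, 48-hour dose response in 96-well plates underlies each endpoint, interpolated linearly between surrounding concentrations. GI50: concentration for 50% inhibition of growth. TGI: concentration producing complete growth inhibition.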

Test system: CAKI-1 renal
Test: DTP human tumour cell line panel, 48 h

`C=C(c1nc2ccc(Cl)cc2[nH]c1=O)C(O)c1ccc(C(O)C(=O)c2nc3ccc(Cl)cc3[nH]c2=O)cc1` (stereo not drawn) and `N#CC(N)(C(=O)CCC(=O)Nc1cccc(Cl)c1)c1ccc(Cl)cc1` (stereo not drawn) cannot be ordered by TGI: over 100 µM for the first, over 100 µM for the second.

First: O=c1c2sc(=S)n(-c3ccc(F)cc3)c2ncn1Cc1ccc(F)cc1F
Second: CCN(CC)CCOc1ccc(-c2nc3cc(Cl)ccc3s2)cc1
The TGI of the first is higher: over 100 µM for the first, 2.84 µM for the second.

Compared with `C=CCCCCC/C=C\[C@H](O)C#CC#C/C=C/CO`, `COc1cc(C#CC(=O)OC/C=C/c2ccc3c(c2)OCO3)cc(OC)c1OC` is 1.5-fold lower in TGI: 86.6 µM for the first, 57 µM for the second.

First: Cc1cc([N+](=O)[O-])ccc1Nc1cccc(Cl)c1C
Second: Cc1cc(CC(O)c2ccc(Cl)c(Cl)c2)nc(=O)[nH]1 (stereo not drawn)
The TGI of the first is 3-fold lower: 30.5 µM for the first, 90 µM for the second.

First: O/N=C/C1C(OCc2ccccc2)C(OCc2ccccc2)C(OCc2ccccc2)CN1Cc1ccccc1 (stereo not drawn)
Second: CN1CCN(CCOc2ccc(-c3cnc4c(-c5ccccc5F)cnn4c3)cc2)CC1
The TGI of the first is higher: over 100 µM for the first, 2.9 µM for the second.

Compared with `O=C1NC(=O)C(c2cnc3ccccn23)=C1c1cn2c3c(cc(F)cc13)CN(C(=O)N1CCCCC1)CC2`, `COc1cnc2c(c1)C(=O)c1c-2n(CCCNC(C)C)c(=O)c2cc(Cl)ccc12` is lower in TGI: over 37.7 µM for the first, 2.15 µM for the second.

First: Clc1nc2ccccc2nc1CI
Second: Cc1ccc(S(=O)(=O)N(CC(=O)O)c2ccccc2)cc1
The TGI of the first is lower: 13.2 µM for the first, over 100 µM for the second.

Going from `CC(C)c1ccc2c(c1)CC[C@@H]1[C@@](C)(C(=O)O)CCC[C@]21C` to `C=C1C(=O)O[C@@H]2C[C@@H]1CC/C(C)=C/CC/C(C)=C/CC[C@@]2(C)O`, the TGI rises from 12 µM to 23.7 µM (2-fold).

`[N-]=[N+]=NC12CC3C4CC5CC3C(C1)C(C5)C4C2` and `C=C1C(=O)OC2CCN3CC=C(COC(=O)C(C)(O)C4(CO4)C1C)C23` (stereo not drawn) cannot be ordered by TGI: over 100 µM for the first, over 100 µM for the second.

First: CC1=NNC(=O)C2CCC(=O)N12 (stereo not drawn)
Second: O=C1/C(=C/c2ccc(Br)cc2)COc2ccc(O)c(O)c21
The TGI of the first is higher: over 100 µM for the first, 2.25 µM for the second.

Compound `CN(C)N=Nc1ccc(NC=O)cc1` has a TGI of over 100 µM.

Compared with `O=c1c2sc(=S)n(-c3ccc(F)cc3)c2ncn1Cc1ccc(F)cc1F`, `CCN(CC)CCOc1ccc(-c2nc3cc(Cl)ccc3s2)cc1` is 26-fold lower in GI50: 37.7 µM for the first, 1.47 µM for the second.

Going from `C=CCCCCC/C=C\[C@H](O)C#CC#C/C=C/CO` to `O=C1/C(=C/c2ccc(Br)cc2)COc2ccc(O)c(O)c21`, the GI50 falls from 32.6 µM to 0.944 µM (35-fold).

`O=C1NC(=O)C(c2cnc3ccccn23)=C1c1cn2c3c(cc(F)cc13)CN(C(=O)N1CCCCC1)CC2` and `CN1CCN(CCOc2ccc(-c3cnc4c(-c5ccccc5F)cnn4c3)cc2)CC1` are within 1.5-fold of each other in GI50: 1.24 µM for the first, 1.56 µM for the second.

Going from `Clc1nc2ccccc2nc1CI` to `COc1cnc2c(c1)C(=O)c1c-2n(CCCNC(C)C)c(=O)c2cc(Cl)ccc12`, the GI50 falls from 5.65 µM to 0.0652 µM (87-fold).

Going from `CC(C)c1ccc2c(c1)CC[C@@H]1[C@@](C)(C(=O)O)CCC[C@]21C` to `C=C1C(=O)O[C@@H]2C[C@@H]1CC/C(C)=C/CC/C(C)=C/CC[C@@]2(C)O`, the GI50 rises from 2.93 µM to 10.7 µM (3.7-fold).

For `COc1cc(N(CCC#N)CCC#N)ccc1/C(N=Nc1ccc([N+](=O)[O-])cc1)=N/NC(=O)c1cc(Br)ccc1O`, the GI50 was 65.9 µg/mL.

In the case of `COc1cc(N(CCC#N)CCC#N)ccc1/C(N=Nc1ccc([N+](=O)[O-])cc1)=N/NC(=O)c1cc(Br)ccc1O`, the TGI is reported as over 150 µg/mL.

Test system: COLO 205 colon
Test: DTP human tumour cell line panel, 48 h

Compared with `OC[C@H]1C[C@](O)(c2ccc(Cl)cc2)[C@@H](c2ccc(Cl)cc2)O1`, `COc1cc2nc(-c3ccc(Cl)cc3)cc(OCCCN3CCCCC3)c2cc1OC` is 44-fold lower in GI50: 25.6 µM for the first, 0.582 µM for the second.

Going from `O=c1c2sc(=S)n(-c3ccc(F)cc3)c2ncn1Cc1ccc(F)cc1F` to `O=C1NC(=O)C(c2cnc3ccccn23)=C1c1cn2c3c(cc(F)cc13)CN(C(=O)N1CCCCC1)CC2`, the GI50 falls from over 100 µM to 11.4 µM.

Going from `C=CCCCCC/C=C\[C@H](O)C#CC#C/C=C/CO` to `O/N=C/C1C(OCc2ccccc2)C(OCc2ccccc2)C(OCc2ccccc2)CN1Cc1ccccc1` (stereo not drawn), the GI50 falls from 36.7 µM to 12.3 µM (3-fold).

`Clc1nc2ccccc2nc1CI` and `[Cl][Hg][c]1cc(Br)cc(Br)c1` are within 1.5-fold of each other in GI50: 2.17 µM for the first, 2.14 µM for the second.

`CC(C)c1ccc2c(c1)CC[C@@H]1[C@@](C)(C(=O)O)CCC[C@]21C` was tested, and the GI50 was 3.23 µM.

Going from `OC[C@H]1C[C@](O)(c2ccc(Cl)cc2)[C@@H](c2ccc(Cl)cc2)O1` to `C=C(c1nc2ccc(Cl)cc2[nH]c1=O)C(O)c1ccc(C(O)C(=O)c2nc3ccc(Cl)cc3[nH]c2=O)cc1` (stereo not drawn), the TGI rises from 51.8 µM to over 100 µM.

Compared with `CC(C)N(C(=O)C12C3C4C5(C#N)C3C1(C#N)C5C42I)C(C)C` (stereo not drawn), `CC(C)c1ccc2c(c1)CC[C@@H]1[C@@](C)(C(=O)O)CCC[C@]21C` is lower in TGI: over 65.1 µM for the first, 7.83 µM for the second.

First: C=COCCCOc1ccccc1
Second: Clc1nc2ccccc2nc1CI
The TGI of the first is higher: over 100 µM for the first, 4.06 µM for the second.

First: COc1cc2nc(-c3ccc(Cl)cc3)cc(OCCCN3CCCCC3)c2cc1OC
Second: COc1cc(C#CC(=O)OC/C=C/c2ccc3c(c2)OCO3)cc(OC)c1OC
The TGI of the first is higher: over 100 µM for the first, 35.7 µM for the second.

First: COc1ccc2c3c([nH]c2c1[N+](=O)[O-])C(C)=NCC3
Second: Cc1cc([N+](=O)[O-])ccc1Nc1cccc(Cl)c1C
The TGI of the first is higher: over 100 µM for the first, 31.3 µM for the second.

Compared with `O=c1c2sc(=S)n(-c3ccc(F)cc3)c2ncn1Cc1ccc(F)cc1F`, `O=C1NC(=O)C(c2cnc3ccccn23)=C1c1cn2c3c(cc(F)cc13)CN(C(=O)N1CCCCC1)CC2` is lower in TGI: over 100 µM for the first, 36.9 µM for the second.

Going from `CC(C)(C)CC(C)(C)c1cc2c(O)c(c1)Cc1cc(C(C)(C)CC(C)(C)C)cc(c1O)Cc1cc(C(C)(C)CC(C)(C)C)cc(c1O)Cc1cc(C(C)(C)CC(C)(C)C)cc(c1O)C2` to `O/N=C/C1C(OCc2ccccc2)C(OCc2ccccc2)C(OCc2ccccc2)CN1Cc1ccccc1` (stereo not drawn), the TGI falls from over 100 µM to 25.2 µM.

Going from `C=CCCCCC/C=C\[C@H](O)C#CC#C/C=C/CO` to `[Cl][Hg][c]1cc(Br)cc(Br)c1`, the TGI falls from over 100 µM to 4.97 µM.
